Measured values as given in ChEMBL document CHEMBL1138369, “Novel nucleotide triphosphates as potent P2Y2 agonists” (Bioorg Med Chem Lett, 2007).

Assays:
Type in all cases: functional
P2Y purinoceptor 2 = P2Y purinoceptor 2 (Homo sapiens, UniProt P41231); test: Agonist activity at human P2Y2 receptor expressed in human 1321N1 by FLIPR assay
P2Y purinoceptor 1 = P2Y purinoceptor 1 (Homo sapiens, UniProt P47900); test: Agonist activity at human cloned P2Y1 receptor expressed in human 1321N1 by FLIPR assay
P2Y purinoceptor 1, sequence (P47900 whole entry): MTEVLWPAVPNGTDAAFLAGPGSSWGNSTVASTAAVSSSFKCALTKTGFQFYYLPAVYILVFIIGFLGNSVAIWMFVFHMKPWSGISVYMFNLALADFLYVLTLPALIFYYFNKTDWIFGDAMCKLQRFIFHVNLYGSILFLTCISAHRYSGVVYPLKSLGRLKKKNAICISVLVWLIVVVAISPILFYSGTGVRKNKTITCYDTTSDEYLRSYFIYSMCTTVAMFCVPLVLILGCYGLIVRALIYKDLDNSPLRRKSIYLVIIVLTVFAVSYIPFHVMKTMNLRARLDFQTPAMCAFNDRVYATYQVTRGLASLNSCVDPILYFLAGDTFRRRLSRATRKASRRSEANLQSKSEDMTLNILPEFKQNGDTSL

P2Y purinoceptor 4 = P2Y purinoceptor 4 (Homo sapiens, UniProt P51582); test: Agonist activity at human cloned P2Y4 receptor expressed in human 1321N1 by FLIPR assay
P2Y purinoceptor 4, sequence (P51582 whole entry): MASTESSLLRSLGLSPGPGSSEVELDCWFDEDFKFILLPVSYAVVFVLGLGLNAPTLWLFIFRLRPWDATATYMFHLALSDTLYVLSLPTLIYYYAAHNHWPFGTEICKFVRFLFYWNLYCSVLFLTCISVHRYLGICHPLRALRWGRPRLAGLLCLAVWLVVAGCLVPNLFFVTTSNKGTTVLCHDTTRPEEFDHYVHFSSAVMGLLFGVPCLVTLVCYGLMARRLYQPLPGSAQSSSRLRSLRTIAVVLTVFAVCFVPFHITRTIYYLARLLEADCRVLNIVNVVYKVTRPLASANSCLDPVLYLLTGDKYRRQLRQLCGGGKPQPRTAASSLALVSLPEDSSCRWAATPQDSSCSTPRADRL

P2Y purinoceptor 6 = P2Y purinoceptor 6 (Homo sapiens, UniProt Q15077); test: Agonist activity at human cloned P2Y6 receptor expressed in human 1321N1 by FLIPR assay
P2Y purinoceptor 6, sequence (Q15077 whole entry): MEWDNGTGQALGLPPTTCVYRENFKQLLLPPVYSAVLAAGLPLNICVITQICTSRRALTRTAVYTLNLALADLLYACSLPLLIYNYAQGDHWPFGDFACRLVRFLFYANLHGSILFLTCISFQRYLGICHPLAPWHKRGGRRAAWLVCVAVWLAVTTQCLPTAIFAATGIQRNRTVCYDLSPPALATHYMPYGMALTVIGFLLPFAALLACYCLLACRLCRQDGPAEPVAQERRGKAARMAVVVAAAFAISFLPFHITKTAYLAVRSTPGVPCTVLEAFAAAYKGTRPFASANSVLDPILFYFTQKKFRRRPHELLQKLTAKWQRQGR

P2Y purinoceptor 2, sequence (P41231 whole entry): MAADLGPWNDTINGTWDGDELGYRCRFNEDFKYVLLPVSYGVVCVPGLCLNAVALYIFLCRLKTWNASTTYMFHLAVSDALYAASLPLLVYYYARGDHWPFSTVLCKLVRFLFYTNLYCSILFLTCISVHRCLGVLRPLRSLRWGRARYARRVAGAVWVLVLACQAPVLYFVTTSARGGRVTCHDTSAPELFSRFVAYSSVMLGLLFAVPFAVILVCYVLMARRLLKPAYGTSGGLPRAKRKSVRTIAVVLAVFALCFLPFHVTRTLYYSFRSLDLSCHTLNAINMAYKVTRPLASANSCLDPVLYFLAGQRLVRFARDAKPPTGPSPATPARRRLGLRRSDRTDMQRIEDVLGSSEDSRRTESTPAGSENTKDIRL

EC50 (P2Y purinoceptor 2) [nM]	EC50 (P2Y purinoceptor 1) [µM]	EC50 (P2Y purinoceptor 4) [µM]	EC50 (P2Y purinoceptor 6) [µM]	SMILES
557				Cc1cccc2c(=O)n([C@@H]3O[C@H](COP(=O)(O)OP(=O)(O)OP(=O)(O)O)[C@@H](O)[C@H]3O)ccc12
13				O=c1c2cc(Cl)c(Cl)cc2ccn1[C@@H]1O[C@H](COP(=O)(O)OP(=O)(O)OP(=O)(O)O)[C@@H](O)[C@H]1O
12				N#Cc1ccc2ccn([C@@H]3O[C@H](COP(=O)(O)OP(=O)(O)OP(=O)(O)O)[C@@H](O)[C@H]3O)c(=O)c2c1
85				Cc1cccc2ccn([C@@H]3O[C@H](COP(=O)(O)OP(=O)(O)OP(=O)(O)O)[C@@H](O)[C@H]3O)c(=O)c12
35				Cc1ccc2c(=O)n([C@@H]3O[C@H](COP(=O)(O)OP(=O)(O)OP(=O)(O)O)[C@@H](O)[C@H]3O)ccc2c1
17500				Cc1cn([C@@H]2O[C@H](COP(=O)(O)OP(=O)(O)OP(=O)(O)O)[C@@H](O)[C@H]2O)c(=O)c2ccccc12
541				O=c1c2ccc(Cl)cc2ccn1[C@@H]1O[C@H](COP(=O)(O)OP(=O)(O)OP(=O)(O)O)[C@@H](O)[C@H]1O
31	> 20	7.04	> 20	O=c1c2ccccc2ccn1[C@@H]1O[C@H](COP(=O)(O)OP(=O)(O)OP(=O)(O)O)[C@@H](O)[C@H]1O
16	> 20	> 20	> 20	O=c1c2cc(F)c(F)cc2ccn1[C@@H]1O[C@H](COP(=O)(O)OP(=O)(O)OP(=O)(O)O)[C@@H](O)[C@H]1O
	> 20			O=c1ccn([C@@H]2O[C@H](COP(=O)(O)OP(=O)(O)OP(=O)(O)OP(=O)(O)OC[C@H]3O[C@@H](n4ccc(=O)[nH]c4=O)[C@H](O)[C@@H]3O)[C@@H](O)[C@H]2O)c(=O)[nH]1 [DIQUAFOSOL]
148				Cc1ccc2ccn([C@@H]3O[C@H](COP(=O)(O)OP(=O)(O)OP(=O)(O)O)[C@@H](O)[C@H]3O)c(=O)c2c1
650				CS(=O)(=O)c1ccc2ccn([C@@H]3O[C@H](COP(=O)(O)OP(=O)(O)OP(=O)(O)O)[C@@H](O)[C@H]3O)c(=O)c2c1
88				N#Cc1ccc2c(=O)n([C@@H]3O[C@H](COP(=O)(O)OP(=O)(O)OP(=O)(O)O)[C@@H](O)[C@H]3O)ccc2c1
77				O=c1c2ccc(F)cc2ccn1[C@@H]1O[C@H](COP(=O)(O)OP(=O)(O)OP(=O)(O)O)[C@@H](O)[C@H]1O
35				O=c1c2cccnc2ccn1[C@@H]1O[C@H](COP(=O)(O)OP(=O)(O)OP(=O)(O)O)[C@@H](O)[C@H]1O
30				O=c1c2ccsc2ccn1[C@@H]1O[C@H](COP(=O)(O)OP(=O)(O)OP(=O)(O)O)[C@@H](O)[C@H]1O
3	> 20	> 20	> 20	CSc1cc2ccn([C@@H]3O[C@H](COP(=O)(O)OP(=O)(O)OP(=O)(O)O)[C@@H](O)[C@H]3O)c(=O)c2cc1F
221				O=c1c2occc2ccn1[C@@H]1O[C@H](COP(=O)(O)OP(=O)(O)OP(=O)(O)O)[C@@H](O)[C@H]1O
68				O=c1c2ccoc2ccn1[C@@H]1O[C@H](COP(=O)(O)OP(=O)(O)OP(=O)(O)O)[C@@H](O)[C@H]1O
55				O=c1c2c(ccn1[C@@H]1O[C@H](COP(=O)(O)OP(=O)(O)OP(=O)(O)O)[C@@H](O)[C@H]1O)CCCC2
140				CSc1ccc2ccn([C@@H]3O[C@H](COP(=O)(O)OP(=O)(O)OP(=O)(O)O)[C@@H](O)[C@H]3O)c(=O)c2c1
7	> 2	0.039	0.424	O=c1ccn([C@@H]2O[C@H](COP(=O)(O)OP(=O)(O)OP(=O)(O)O)[C@@H](O)[C@H]2O)c(=O)[nH]1 [URIDINE TRIPHOSPHATE]
5	> 20	3.58	> 20	O=c1c2cc(F)ccc2ccn1[C@@H]1O[C@H](COP(=O)(O)OP(=O)(O)OP(=O)(O)O)[C@@H](O)[C@H]1O
10	> 20	20	> 20	O=c1c2cc(Cl)ccc2ccn1[C@@H]1O[C@H](COP(=O)(O)OP(=O)(O)OP(=O)(O)O)[C@@H](O)[C@H]1O
26				COc1ccc2ccn([C@@H]3O[C@H](COP(=O)(O)OP(=O)(O)OP(=O)(O)O)[C@@H](O)[C@H]3O)c(=O)c2c1
6				COc1cc2ccn([C@@H]3O[C@H](COP(=O)(O)OP(=O)(O)OP(=O)(O)O)[C@@H](O)[C@H]3O)c(=O)c2cc1F
4				CN(C)c1cc2ccn([C@@H]3O[C@H](COP(=O)(O)OP(=O)(O)OP(=O)(O)O)[C@@H](O)[C@H]3O)c(=O)c2cc1F
